In US5840336A, “Two-phase matrix for sustained release drug delivery device” (Cygnus, Inc., priority 1995, dated 1998):

Experiments:
[1] = Solubility of the drug in pH 5.0 phosphate buffer receiver fluid; type: physicochemical
[2] = type: in vivo
Method: The effective dose for treating Parkinson's disease is estimated to be in the range of about 1 to 3 μg/kg/hr. Accordingly, for transdermal administration, the target flux of this drug (based on a 20 cm^2 delivery area) is estimated to be in the range of approximately 3-10 μg/cm^2 /hr.

[3] = pH 6
D2 = details: cited from earlier work

SMILES: Cc1cccc(CN2CCN(C)C[C@@H](NC(=O)c3n[nH]c4ccccc34)C2)c1.Cl.Cl [(R)-(-)-N-(1-Methyl-4-(3-methylbenzyl)hexahydro-1H-1,4-diazepin-6-yl)-1H-indazole-3-carboxamide dihydrochloride]
- solubility for the drug [1]: reasonable solubility

SMILES: CCCN(CCc1cccs1)[C@H]1CCc2c(O)cccc2C1 [S(-)-2-(N-propyl-N-2-thienylethylamine)-5-hydroxytetralin]
- target flux [2]: 3-10 μg/cm^2 /hr
- effective dose for treating Parkinson's disease ([2]; estimated): 1 to 3 µg/kg/h
- skin flux from liquid formulations [3]: at or above the effective range
- selective D2 agonist (D2): selective D2 agonist
